From patent US6855519B2, “Methods for enhancing the production of interferon in cell culture” (The Regents of the University of California, priority 1995, dated 2005)

Assays:
Assay type in all cases: cell-based
U937-PKR+ cells [1] = test: Trypan blue exclusion viability assay following induction
Excerpt: Following induction by poly r(I):poly r(C), the U937-PKR+ cells were examined for viability using a trypan blue exclusion assay. […] Thus, the U937-PKR+ cells can be recycled for continuous production of IFN.

U937-PKR+ cells [2] = test: Interferon induction in U937-PKR+ cells (IFN assay of culture supernatants)
Method: (§1) FIG. 2. Interferon induction in U937-PKR+ cells and control U937-neo cells. U937-PKR+ cells and U937-neo cells (0.5×10^6/ml) were cultured in RPMI 1640 medium, supplemented with 5% fetal bovine serum. The cells were pretreated (“primed”) with or without 10 nM PMA for 20 hrs followed by induction with 10 μg/ml poly r(I):poly r(C) or with 0.1 TCID50/cell EMCV for 20 hrs. Twenty-four hours after induction, culture supernatants were collected and assayed for IFN-α. The open bars indicate U937-neo cells, the hatched bars indicate U937-PKR+ cells. The experimental groups indicate different treatments: 1-no treatment; 2-poly r(I):poly r(C) induction alone; 3-EMCV induction alone; 4-PMA priming alone; 5-PMA priming and poly r(I):poly r(C) induction; 6-PMA priming and EMCV induction.
(§2) The levels of IFN-α in the preparations can be determined by titrating for antiviral activity on L929 (murine fibroblast) cells against National Institute of Allergy and Infectious Diseases reference standard G-023-901-527 (Lau et al. J. Clin. Invest. 82:1415-1421 1988). In this technique, 5×10^4 L929 cells are seeded into each well of 96-well microtiter plates and then incubated with two-fold serial dilutions of culture supernatants for 16 hr. The cells are subsequently challenged with EMCV or Sendai virus (0.1 or 0.01 TCID per cell). Virus-induced cytopathic effects were assessed by microscopic examination and by staining cells with 0.1% crystal violet in 5% ethanol solutions. The IFN titer is defined as the reciprocal of the highest dilution of culture supernatants capable of protecting 50% of the cells from viral-induced cytopathic effects.
U937-PKR+ cells and U937-neo cells were cultured in RPMI 1640 medium, supplemented with fetal bovine serum. The cells were pretreated with or without phorbol myristate acetate (PMA) (10 nM) for 20 hr and with or without subsequent stimulation by poly r(I):r(C), 10 ug/ml, for 20 hr. Twenty-four hr after the stimulation with poly r(I):r(C), culture supernatants were collected for IFN assays.

U937-neo cells = test: Interferon induction in control U937-neo cells (IFN assay of culture supernatants); details: inducer 10 μg/ml for 20 hr, either with or without 10 nM PMA priming
Method: as §1
as §2, with “The cells are subsequently challenged with EMCV or Sendai virus (0.1 or 0.01 TCID per cell).” left out, “The IFN titer is defined as the reciprocal of the highest dilution of culture supernatants capable of protecting 50% of the cells from viral-induced cytopathic effects.” left out

Row | Compound | viable cells (U937-PKR+ cells [1]) | IFN production (U937-PKR+ cells [2]; inducer 10 μg/ml for 20 hr, with or without 10 nM PMA priming) | IFN level (U937-PKR+ cells [2]; with 10 nM PMA priming 20 hr, then induction) [U/ml] | IFN-α synthesis (U937-neo cells) | IFN production (U937-PKR+ cells [2]; PMA priming alone, no EMCV or poly r(I):poly r(C) inducer, compared with U937-neo cells)
1 | poly r(I):poly r(C) | more than 95% | increased IFN production | 4000 | minimal synthesis of IFN-α | 
2 | CCCCCCCCCCCCCC(=O)O[C@@H]1[C@@H](C)[C@@]2(O)[C@@H](C=C(CO)C[C@]3(O)C(=O)C(C)=C[C@@H]23)[C@@H]2C(C)(C)[C@]12OC(C)=O [PMA, phorbol myristate acetate] |  |  |  |  | higher levels of IFNs than did U937-neo cells
